Results on 2 compounds are retold here after patent US12593841B2, “Antimicrobial mixture containing 4-(3-ethoxy-4-hydroxyphenyl)butan-2-one and an arginate compound, and cosmetic composition containing same” (L'OREAL, priority 2017, dated 2026).

Holding throughout (assay type): cell-based
The test system of test [1] is Pseudomonas aeruginosa ATCC 9027. Nature of the test: MIC / synergy (FIC index) microplate growth test on Pseudomonas aeruginosa. From the text:
(§1) As regards the combinations tested, MICa with b and MICb with a are the respective concentrations of A and of B in the combinations which make it possible to obtain a microbial growth percentage of less than or equal to 25%.
(§2) When the FIC index value is less than or equal to 1, it is considered that the combination of test compounds has a synergistic effect.
The microbial strain Pseudomonas aeruginosa ATCC 9027 and a double-concentration nutrient broth liquid culture medium were used.
(§3) A 96-well microplate at an incubation temperature of 32.5° C. is used.
(§4) The incubation time of the microplate for the three abovementioned strains is from 18 to 24 hours aerobically.
(§5) A 10% (weight/volume) stock solution was prepared by mixing 1 g of compound in 9 ml of aqueous 1‰ agar solution. Successive dilutions were made with the 1‰ agar solution. • Tests of compounds A and B alone
(§6) 50 μL of each of the daughter solutions obtained containing compound A or B are added to the microplate wells. 100 μl of Sabouraud liquid nutrient broth inoculated at double concentration with the strain Candida albicans and 50 μl of aqueous 1‰0 agar solution are also added thereto. • Tests of compounds A and B as a mixture
(§7) 50 μL of each of the daughter solutions obtained containing compound A and 50 μL of each of the daughter solutions obtained containing compound B are added to the microplate wells. 100 μl of Sabouraud liquid nutrient broth inoculated at double concentration with the strain Candida albicans are also added thereto.
(§8) A positive microbial growth control was also prepared. The positive microbial growth control corresponds to a mixture of 100 μl of aqueous 1‰ agar solution with 100 μl of Sabouraud liquid nutrient broth inoculated at double concentration with the strain Candida albicans in the absence of compounds A and B.
(§9) An absorbance control was performed in parallel on compounds A and B alone. This control corresponds to 100 μL of double concentration sterile Sabouraud liquid nutrient broth +100 μl of double concentration compound A or B.
(§10) In the three cases (absorbance control, growth control and test), the final volume present in each of the microplate wells is 200 μL.
(§11) The test as described above (tests, absorbance control and growth control) was performed again to test the combination A+B on the strains Staphylococcus aureus and Pseudomonas aeruginosa.

The test system of test [2] is Staphylococcus aureus ATCC 6538. Description: MIC / synergy (FIC index) microplate growth test on Staphylococcus aureus.
Source text: as §1, §2
The microbial strain Staphylococcus aureus ATCC 6538 and a double-concentration nutrient broth liquid culture medium were used.
as §3, §4, §5, §6, §7, §8, §9, §10, §11

For test [3], the system named is Candida albicans ATCC 10231. Nature of the test: MIC / synergy (FIC index) microplate growth test on Candida albicans.
Source text: as §1, §2
The microbial strain Candida albicans ATCC 10231 and a double-concentration Sabouraud broth liquid culture medium were used.
as §3, §4, §5, §6, §7, §8, §9, §10
In the two cases (test and control), the inoculum represents the concentration of the strain Candida albicans present in the final volume of the wells (200 μL) and is between 2 and 6×10^5 cfu/ml of Candida albicans.

The mark [4] stands for this setting: weight % of active material, growth <= 25%.

SMILES strings stand for the structures.

Consider `CCOc1cc(CCC(C)=O)ccc1O` [A, 4-(3-ethoxy-4-hydroxyphenyl)butan-2-one], for which the microbial growth percentage in test [1] (0.125 weight % A alone (0 B)) was found to be 99%; in test [1] (0.25 weight % A alone (0 B)) it was 46%; in test [1] (0.5 weight % A alone (0 B)), 37%; in test [1] (1 weight % A alone (0 B)) it was 41%; in test [1] (2 weight % A alone (0 B)), 19%; in test [2] (0.125 weight % A alone (0 B)) it was 58%. In addition, the microbial growth percentage in test [2] (0.25 weight % A alone (0 B)) is recorded as 60%; in test [2] (0.5 weight % A alone (0 B)), 0%; in test [3] (0.025 weight % A alone (0 B)), 80%; in test [3] (0.05 weight % A alone (0 B)), 62%; in test [3] (0.1 weight % A alone (0 B)), 24%; in test [3] (0.2 weight % A alone (0 B)), 3%. The “% MIC of A alone” value came out at 2% in test [1] (setting [4]), 0.5% in test [2] (setting [4]) and 0.2% in test [3] (setting [4]).

As for `CCCCCCCCCCCC(=O)N[C@@H](CCCNC(=N)N)C(=O)OCC.Cl` [B, ethyl N-lauroyl arginate hydrochloride, reference compound], the microbial growth percentage in test [1] (0.0025 weight % B alone (0 A)) came to 37%; in test [1] (0.005 weight % B alone (0 A)), 10%; in test [2] (0.00025 weight % B alone (0 A)) it was 71%; in test [2] (0.0005 weight % B alone (0 A)) it was 0%; in test [3] (0.0025 weight % B alone (0 A)), 28%; in test [3] (0.005 weight % B alone (0 A)), 9%. The figures for the “% MIC of B alone” value in test [1] (setting [4]), in test [2] (setting [4]) and in test [3] (setting [4]) were 0.005%, 0.0005% and 0.005%, respectively.
